Test results as given in article PMC7876056, “Population Pharmacokinetic Analysis of Yimitasvir in Chinese Healthy Volunteers and Patients With Chronic Hepatitis C Virus Infection” (Frontiers in Pharmacology, 2021).
“And” between values parts separate entries of the source, which are not always exact repeats. Equal values may be shown once. “Also recorded” adds a separate entry of the source.

Legend:
CYP3A4 = conditions: cited from earlier work
[1] = parameters: method as in Zhang et al., 2018; conditions: patients, ref Zhang et al., 2018, cited from earlier work
[2] = system: chronic HCV genotype 1 infection; test: Phase 2 study of yimitasvir with sofosbuvir in patients with chronic HCV infection; format: in vivo, human; conditions: for Adverse reaction rate: with 400 mg sofosbuvir
Experimental: In phase 2 study, yimitasvir 100 or 200 mg was administered once daily for 12 weeks in combination with 400 mg sofosbuvir in patients with chronic HCV infection. […] The primary endpoint of phase 2 study was sustained virologic response [HCV RNA less than lower limit of quantification (LLOQ)] 12 (SVR12) weeks after the completion of treatment. SVR12 rates were achieved 100% in both 100 mg yimitasvir/400 mg sofobuvir and 200 mg yimitasvir/400 mg sofobuvir groups. […] The most common adverse reactions were neutropenia (3.9%), leukopenia (3.1%), hypercholesterolemia (3.1%) and fatigue (3.1%).
(§1) The current population PK analysis of yimitasvir was performed using rich and sparse PK samples collected from six clinical pharmacology trials [4 phase 1 ([Zhao et al., 2019]), 1 phase 1b ([Zhang et al., 2018]) and 1 phase 2 studies] in Chinese healthy volunteers and HCV-infected patients. Rich sampling entailed serial blood sampling at defined time points, and sparse sampling (single sample) only in phase 2 study entailed blood collection at every study visits. Patients with genotype 1 HCV infection were eligible, while patients with prior use of direct-acting antiviral agents (DAA) for HCV infection treatment were excluded in phase 1b and phase 2 studies.

CYP 2B6 = conditions: cited from earlier work
[3] = Population pharmacokinetic model (Phoenix NLME, FOCE-ELS) of yimitasvir in Chinese healthy volunteers and HCV infection patients; format: in vivo, human
Experimental: as §1
A fully validated liquid chromatography-tandem mass spectrometry (LC-MS/MS) method determining yimitasvir concentration in phase 1 and phase 1b studies had been reported elsewhere ([Zhang et al., 2018]; [Zhao et al., 2019]).
Plasma concentration of yimitasvir in phase 2 study was analyzed using a validated LC-MS/MS method equipped with a Shimadzu LC-30AD liquid chromatography-SCIEX API6500 mass spectrometer. Chromatographic retention and separation were achieved on a XBridge Peptide BEH C18, 50 × 2.1 mm, 3.5 μm column. Gradient elution was used with 2 mM ammonium acetate in water with 0.1% formic acid as mobile phase A and acetonitrile:methanol (30:70, v:v) as mobile phase B at a flow rate of 0.5 ml min^−1. The column temperature was maintained at 45°C. Quantitation was accomplished in positive mode with precursor-to-production pairs of m/z 428.5→315.3 for yimitasvir and m/z 432.5→319.5 for the internal standard d8-DAG (isotope-labelled yimitasvir), respectively.
Population pharmacokinetic analysis of yimitasvir was performed by Phoenix NLME software (Version 8.1, Certara) using the first-order conditional estimation-extended least squares (FOCE-ELS) method.
The structural model was first tested by fitting a one-compartment or two-compartment model to the log-transformed PK data. Different absorption models including first-order absorption with or without a lag time, sequential zero-first order absorption, transit absorption and saturable Michaelis-Menten absorption model, were also tested. The optimal structural model was selected based on the Akaike Information Criteria (AIC), minimization success, visual inspection of goodness-of-fit plots and individual fit.
Inter-subject variability was estimated by exponential model for PK parameters as follows (Eq. 1): θi=θTV×e^ηi, (1) where θi is the parameter estimation for the ith individual, θTV is the typical value of the parameter estimation in the population, ηi is a random variable which assumed to be normally distributed with a mean of 0 and a variance of ω^2. Proportional error model and proportional plus additive error model were tested as residual error models.
Sigmoidal maximum effect (Emax) (Eq. 2) and linear models (Eq. 3) were tested to quantify the relationship between bioavailability and dose: {F=θF ,Dose≤100 mgF=θF−Fmax×(Dose−100)/(F50+(Dose−100)),Dose>100 mg, (2) where θF is the bioavailability in individuals who received ≤100 mg yimitasvir, which was fixed to 1. Fmax is the maximal reduction in bioavailability and F50 is the dose associated with a half-maximal reduction in bioavailability. {F=θF ,Dose≤100 mgF=θF −Alpha×(Dose−100)/100,Dose>100 mg, (3) where Alpha is a slope term determining the relative change in bioavailability for each 100 mg increase in yimitasvir dose.
Subsequently, different covariates were tested using a stepwise forward inclusion [a decrease in objective function value (OFV) of > 6.63, p < 0.01] and a stricter backward exclusion procedure (an increase in OFV of > 10.83, p < 0.001). […]

CYP 2D6 = conditions: cited from earlier work
[4] = mice; cited from earlier work
CYP 2C9 = conditions: cited from earlier work
[5] = 100 or 200 mg with 400 mg sofosbuvir
[6] = final model estimate (RSE%), food = 2, high-fat meal

SMILES: COC(=O)NC(C(=O)N1CCCC1c1ncc(-c2ccc(-c3ccc(-c4ccc5nc(C6CCCN6C(=O)C(NC(=O)OC)C(C)C)[nH]c5c4)c4c3C3CCC4C3)cc2)[nH]1)C(C)C (stereo not shown) [yimitasvir]
- Induction of CYP3A4 (CYP3A4): may be a weak inducer
- Dose proportionality of exposure ([1]; 30 to 200 mg administered during the night (4 h after dinner)): near dose-proportional increase in exposure
- Median time to peak concentration (Tmax) ([1]; evening after dinner for more than 4 h): 4 to 12 h
- Adverse reaction rate ([2]; 100 mg group): 35.9%
- SVR12 rate ([2]; 100 mg yimitasvir/400 mg sofosbuvir once daily for 12 weeks): 100%
- Adverse reaction rate ([2]; 200 mg group): 36.9%
- SVR12 rate ([2]; 200 mg yimitasvir/400 mg sofosbuvir once daily for 12 weeks): 100%
- Effect of co-medication of sofosbuvir on PK profile ([2]; 400 mg sofosbuvir): did not affect; also recorded: not affected by co-medication of sofosbuvir
- Adverse reaction: fatigue [2, 5]: 3.1%
- Adverse reaction: hypercholesterolemia [2, 5]: 3.1%
- Adverse reaction: leukopenia [2, 5]: 3.1%
- Adverse reaction: neutropenia [2, 5]: 3.9%
- Severity of adverse reactions ([2]; most common adverse reactions): grade 1 or 2; also recorded: grade one or two
- Dose proportionality of exposure ([2]; patients, 100 or 200 mg with 400 mg sofosbuvir): Less than dose proportionality
- SVR12 rate (primary endpoint) ([2]; phase 2 study overall, taken at least 2 h before or after a meal in most patients): 100%
- Inhibition of CYP2B6 (CYP 2B6): does not inhibit
- Relative bioavailability of 200 mg to 100 mg ([3]; according to the final model): 87.1%
- Relative bioavailability of 400 mg to 100 mg ([3]; according to the final model): 61.3%
- CL/F ∼ ALT (covariate coefficient, power) ([3]; bootstrap mean): −0.0955 (−15.3)
- CL/F ∼ Female (covariate coefficient) ([3]; bootstrap mean): −0.250 (−14.6)
- F ∼ Food1 (covariate coefficient) ([3]; bootstrap mean): −0.312 (−34.9)
- F ∼ Food2 (covariate coefficient) ([3]; bootstrap mean): −0.473 (−19.8)
- Ka ∼ Food1 (covariate coefficient) ([3]; bootstrap mean): −1.72 (−10.5)
- Ka ∼ Food2 (covariate coefficient) ([3]; bootstrap mean): −2.43 (−7.4)
- Random effect CL/F (inter-individual variability) ([3]; bootstrap mean): 0.483 (5.8)
- Random effect CL/F ∼ V1/F (covariance) ([3]; bootstrap mean): 0.562 (8.1)
- Random effect V1/F (inter-individual variability) ([3]; bootstrap mean): 0.729 (11.0)
- Residual error σ (proportional) ([3]; bootstrap mean): 0.304 (3.4)
- Td ∼ Patient (covariate coefficient) ([3]; bootstrap mean): −0.403 (−27.9)
- CL/F ([3]; bootstrap mean (n = 1,000)): 13.8 (3.7) l h^−1
- Ka ([3]; bootstrap mean (n = 1,000)): 1.38 (13.7) h^−1
- Q/F ([3]; bootstrap mean (n = 1,000)): 4.04 (16.8) l h^−1
- Td ([3]; bootstrap mean (n = 1,000)): 2.22 (7.2) h
- V1/F ([3]; bootstrap mean (n = 1,000)): 189 (5.6) l
- V2/F ([3]; bootstrap mean (n = 1,000)): 59.1 (9.1) l
- Effect of age and BW on PK properties ([3]; covariate screening): no effect
- Decrease of bioavailability (F) for each 100 mg dose increase ([3]; dose > 100 mg, linear model): 12.9%
- Covariance of inter-individual variability of CL/F and V1/F ([3]; final model): 56.5%
- Inter-individual variability for CL/F ([3]; final model): 48.5%
- Inter-individual variability for V1/F ([3]; final model): 73.6%
- CL/F ∼ Female (covariate coefficient) ([3]; final model estimate (RSE%)): −0.251 (−14.2)
- Q/F ([3]; final model estimate (RSE%)): 3.96 (14.7) l h^−1
- Random effect CL/F (inter-individual variability) ([3]; final model estimate (RSE%)): 0.485 (3.8)
- Random effect CL/F ∼ V1/F (covariance) ([3]; final model estimate (RSE%)): 0.565 (5.1)
- Random effect V1/F (inter-individual variability) ([3]; final model estimate (RSE%)): 0.736 (6.9)
- Residual error σ (proportional) ([3]; final model estimate (RSE%)): 0.305 (0.7)
- Td ∼ Patient (covariate coefficient) ([3]; final model estimate (RSE%)): −0.416 (−10.7)
- V2/F ([3]; final model estimate (RSE%)): 58.6 (6.9) l
- CL/F ∼ ALT (covariate coefficient, power) ([3]; final model estimate (RSE%), baseline ALT normalised to median): −0.0950 (−21.2)
- Ka ([3]; final model estimate (RSE%), first-order absorption rate, typical healthy male volunteer, ALT 31.6 IU l^−1, fasted): 1.31 (7.2) h^−1
- Ka ∼ Food1 (covariate coefficient) ([3]; final model estimate (RSE%), food = 1, evening, fasted at least 4 h after dinner): −1.71 (−5.5)
- F ∼ Food1 (covariate coefficient) ([3]; final model estimate (RSE%), food = 1, fasted at least 4 h): −0.341 (−26.3)
- F ∼ Food2 (covariate coefficient) [3, 6]: −0.485 (−31.2)
- Ka ∼ Food2 (covariate coefficient) [3, 6]: −2.40 (−3.7)
- Td (duration of zero-order absorption) ([3]; final model estimate (RSE%), healthy volunteers): 2.17 h and 2.17 (4.4) h
- CL/F (apparent oral clearance) ([3]; final model estimate (RSE%), typical healthy male volunteer, ALT 31.6 IU l^−1, fasted): 13.8 l h^−1 and 13.8 (4.1) l h^−1
- Higher CL/F in male subjects than females ([3]; human, in vivo): 22.2%
- Vd/F ([3]; human, plasma, oral, final model estimate (RSE%), typical healthy male volunteer, ALT 31.6 IU l^−1, fasted, read-out: V1/F (central volume of distribution)): 188 L
- Zero-order absorption duration (Td) ([3]; patients): 1.43 h
- Decrease of F by high-fat meal ([3]; vs fasted): 38.5%
- Decrease of Ka by high-fat meal ([3]; vs fasted): 90.9%
- Inhibition of CYP2D6 (CYP 2D6): does not inhibit
- Metabolism in hepatic microsomes [4]: No metabolism
- Inhibition of CYP2C9 (CYP 2C9): does not inhibit
